Laboratory results from patent US20260274832A1, “COMPOUNDS AND THEIR USE IN TREATING CANCER” (ASTRAZENECA AB, priority 2023, published 2026).

Assays:
[1] = biological target: T1, AR (AR-full length) in LNCaP cells (Homo sapiens, UniProt P10275, T878A); assay: LNCaP Androgen Receptor Imaging Assay (immunofluorescence of endogenous nuclear AR); type: cell-based; details: 24 h incubation; for DC50: concentration giving 50% of maximum degradation of AR per curve fit, single experiment or average of two or more; for Dmax: LNCaP, maximum degradation observed, normalized as % of positive control (prior art AR PROTAC at 3 μM)
T1 construct: the prostate cancer cell line LNCaP (expressing AR-full length); endogenous in cells; host or cells: LNCaP
Description: This cell-based imaging assay uses immuno-fluorescence to measure endogenous nuclear AR staining in the prostate cancer cell line LNCaP (expressing AR-full length). The purpose of the assay is to identify compounds that regulate AR protein level according to the protocol laid out in the steps below.
(§1) All work was performed in a sterile tissue culture hood up to the point of cell fixation. LNCaP cells were cultured at 6-8×10^6 per T175 flask and split every 3-4 days. Medium: RPMI (R7638, VWR Sigma) containing 10% FCS and 1% glutamine. Cells were plated in black wall transparent bottom plates at a density of 12,000 cells (Cedex™ Cell counter, Beckmann & Coulter), 40 μL per well, using a Multidrop (ThermoFisher).
(§2) Cells were dosed with test compound diluted in DMSO using an Echo 555/655™ (Labcyte) and the final concentration of DMSO in the well was 0.3%. A neutral control (DMSO) and a positive AR degrader control at 3 μM (a prior art AR PROTAC) were included. The Echo uses acoustic technology to perform direct microplate-to-microplate transfers of DMSO compound solutions to assay plates. The system can be programmed to transfer volumes as low as 2.5 nL in multiple increments between microplates and in so doing generates a serial dilution of compound in the assay plate which is then back-filled to normalise the DMSO concentration across the dilution range. Compounds were dispensed as a 12 point dose response with indicated concentrations. The plates were incubated at 37° C./5% CO2 for 24 h and then fixed and stained as below. 40 μL of 8% paraformaldehyde solution (v/v) in phosphate buffered saline (PBS) was added on top of the media already in the well using a Multidrop to fix plates giving a final concentration of 4% PFA (v/v) for 20-30 minutes (keep in fume hood to minimise PFA exposure). After 20-30 mins, the plates were washed with 3×PBS using a BioTek washer in a fume hood. A shake out of remaining volume in the well was performed to ensure best removal of remaining PBS. At this plates could be stored in PBS after washing for at least 3 days at 4° C., if so, PBS was removed by the BioTek before continuing with the next step.
(§3) The cells were incubated with a Mouse monoclonal Anti-AR antibody AR441 (DAKO M3562) (1:1000), diluted in modified blocking buffer (PBS+1% BSA+0.1% TritonX); 15 μL/well for 2 h at RT. The plates were then washed with 3×PBS using a BioTek washer. A shake out of remaining volume in the well was performed to ensure best removal of remaining PBS. Cells were then incubated with Goat anti-mouse secondary antibody 488 (Invitrogen A11001) (1:500) and nuclear stain, DRAQ5 (Abcam Ab108410) (1:2000) diluted in modified blocking buffer for 45 mins at room temperature 15 μL/well. Plates are then washed with 3×PBS using a BioTek washer, without final aspiration, and sealed with black plate seals. Plates could be stored after staining for three days at 4° C. before read if required.
(§4) Plates are read using a Cellomics Cellinsight to measure the Androgen Receptor level in each well. The data is exported into Genedata to perform curve fitting analysis. All data are normalized as % of positive control and the BellFit method automatically determines the correct fit method based on the presence of hook effect, choosing the BellFit when there is a hook and HillFit when there is no hook. Down-regulation of AR is expressed as a DC50 value and determined by calculation of the concentration of compound that is required to give 50% of maximum degradation of AR as per the curve fit for that compound. The maximum degradation observed for each compound is expressed as Dmax. The AR degradation data for compounds is shown in the table below and may be a result from a single experiment or an average of two or more experiments.

[2] = biological target: T2, AR (L702H) in LNCaP cells (Homo sapiens, UniProt P10275, L702H/T878A); assay: LNCaP Androgen Receptor L702H Imaging Assay (LNCaP cells engineered by CRISPR/Cas9); type: cell-based; details: LNCaP cells with AR L702H mutation, 24 h incubation; for DC50: concentration giving 50% of maximum degradation of AR (L702H) per curve fit; for Dmax: LNCaP, maximum degradation observed, normalized as % of positive control
T2 construct: engineered to introduce the mutation L702H into the AR gene using CRISPR/Cas9; endogenous in cells; host or cells: LNCaP cells edited by CRISPR/Cas9 at the AR gene
Description: as §1, §2, §3, §4
At this stage, anti-androgen therapy is largely ineffective due to AR amplification, overexpression or point mutation. One of the point mutations observed in patient populations is L702H in the AR Ligand Binding Domain. LNCAP cells have been engineered to introduce the mutation L702H into the AR gene using CRISPR/Cas9. The previously described imaging-based AR assay will monitor nuclear AR (L702H) levels in these cells to identify compounds that regulate AR (L702H). […]

T1 sequence (P10275 whole entry T878A): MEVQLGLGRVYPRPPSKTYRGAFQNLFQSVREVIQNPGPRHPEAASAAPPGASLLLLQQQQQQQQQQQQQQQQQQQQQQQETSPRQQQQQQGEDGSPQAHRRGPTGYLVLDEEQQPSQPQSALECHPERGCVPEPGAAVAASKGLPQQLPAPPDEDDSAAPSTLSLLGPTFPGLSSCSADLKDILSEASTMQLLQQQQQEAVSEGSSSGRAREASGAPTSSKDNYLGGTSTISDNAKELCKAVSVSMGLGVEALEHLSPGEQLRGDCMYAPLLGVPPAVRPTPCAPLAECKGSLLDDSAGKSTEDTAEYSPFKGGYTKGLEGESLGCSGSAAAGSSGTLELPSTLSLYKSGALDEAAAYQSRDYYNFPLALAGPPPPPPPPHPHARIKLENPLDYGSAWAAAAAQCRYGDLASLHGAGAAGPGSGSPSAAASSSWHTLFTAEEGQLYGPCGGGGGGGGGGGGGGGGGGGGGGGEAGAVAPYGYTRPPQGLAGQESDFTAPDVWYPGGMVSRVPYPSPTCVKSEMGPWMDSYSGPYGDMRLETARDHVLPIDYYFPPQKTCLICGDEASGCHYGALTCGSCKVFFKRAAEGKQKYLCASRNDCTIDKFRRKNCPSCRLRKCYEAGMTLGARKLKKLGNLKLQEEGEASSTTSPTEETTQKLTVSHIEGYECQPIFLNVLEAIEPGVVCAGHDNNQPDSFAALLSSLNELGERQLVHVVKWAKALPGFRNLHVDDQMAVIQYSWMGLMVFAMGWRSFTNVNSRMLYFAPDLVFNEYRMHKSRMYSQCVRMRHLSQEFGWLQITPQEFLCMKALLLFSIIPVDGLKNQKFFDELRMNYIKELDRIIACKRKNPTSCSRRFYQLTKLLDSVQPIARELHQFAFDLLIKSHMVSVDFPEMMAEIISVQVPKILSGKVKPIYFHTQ
T1 sequence (Q96SW2 whole entry partner): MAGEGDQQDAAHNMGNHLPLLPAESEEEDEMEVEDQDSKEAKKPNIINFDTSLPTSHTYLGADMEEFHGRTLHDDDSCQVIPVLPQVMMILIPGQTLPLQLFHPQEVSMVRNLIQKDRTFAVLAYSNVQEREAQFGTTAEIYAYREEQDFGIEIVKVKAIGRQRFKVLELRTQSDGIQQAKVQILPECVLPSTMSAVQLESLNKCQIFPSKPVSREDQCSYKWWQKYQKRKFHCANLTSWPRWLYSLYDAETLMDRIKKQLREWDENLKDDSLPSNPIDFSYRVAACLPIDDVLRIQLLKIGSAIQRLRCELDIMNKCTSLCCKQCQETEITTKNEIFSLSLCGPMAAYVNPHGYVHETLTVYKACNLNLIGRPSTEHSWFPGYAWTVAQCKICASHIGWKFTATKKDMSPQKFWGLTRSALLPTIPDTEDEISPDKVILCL
T2 sequence (P10275 whole entry L702H/T878A): as the sequence (P10275 whole entry T878A) above, with L702H counted along it
T2 sequence (Q96SW2 whole entry partner): as the sequence (Q96SW2 whole entry partner) above

Row | DC50 [1] [nM] | Dmax [1] [%] | DC50 [2] [nM] | Dmax [2] [%] | Structure (SMILES)
1 | 10 | 105 | 20 | 109 | Cn1c(C2CCN(CC3CCN(c4ccc([C@@H]5CCCN(c6ccc(Cl)c7c(C#N)c[nH]c67)C5)cc4)CC3)CC2)cc2cc(F)c(N3CCC(=O)NC3=O)cc21 [Example 137, 4-Chloro-7-[(3S)-3-{4-[4-({4-[6-(2,4-dioxo-1,3-diazinan-1-yl)-5-fluoro-1-methyl-1H-indol-2-yl]piperidin-1-yl}methyl)piperidin-1-yl]phenyl}piperidin-1-yl]-1H-indole-3-carbonitrile]
2 | 12 | 100 | 57 | 94 | N#Cc1c[nH]c2c(N3CCC[C@@H](c4ccc(N5CCC(CN6CCC(n7ccc8c(N9CCC(=O)NC9=O)cccc87)CC6)CC5)cc4)C3)ccc(F)c12 [Example 23, 7-[(3S)-3-{4-[4-({4-[4-(2,4-Dioxo-1,3-diazinan-1-yl)-1H-indol-1-yl]piperidin-1-yl}methyl)piperidin-1-yl]phenyl}piperidin-1-yl]-4-fluoro-1H-indole-3-carbonitrile]
3 | 73 | 94 | 160 | 97 | COc1cc(N2CCN(CC3CCN(c4ccc(C5CCN(c6ccc(C)c7c(C#N)c[nH]c67)CC5)c(F)c4)CC3)CC2)cc2c1C(=O)N(C1CCC(=O)NC1=O)C2=O (stereo not shown) [Example 43, 7-(4-{4-[4-({4-[2-(2,6-Dioxopiperidin-3-yl)-7-methoxy-1,3-dioxo-2,3-dihydro-1H-isoindol-5-yl]piperazin-1-yl}methyl)piperidin-1-yl]-2-fluorophenyl}piperidin-1-yl)-4-methyl-1H-indole-3-carbonitrile]
4 | 7 | 104 | 34 | 102 | N#Cc1c[nH]c2c(N3CCC(c4ccc(N5CCC(CN6CCC(n7ccc8c(N9CCC(=O)NC9=O)cccc87)CC6)CC5)nc4)CC3)ccc(Cl)c12 [Example 108, 4-Chloro-7-(4-{6-[4-({4-[4-(2,4-dioxo-1,3-diazinan-1-yl)-1H-indol-1-yl]piperidin-1-yl}methyl)piperidin-1-yl]pyridin-3-yl}piperidin-1-yl)-1H-indole-3-carbonitrile]
5 | 2 | 106 | 2 | 115 | N#Cc1cc(C(=O)NC2CCN(c3ccc(Cl)c4c(C#N)c[nH]c34)CC2)ccc1N1CCC(CN2CCC(n3ccc4c(N5CCC(=O)NC5=O)cccc43)CC2)CC1 [Example 165, N-[1-(4-Chloro-3-cyano-1H-indol-7-yl)piperidin-4-yl]-3-cyano-4-[4-({4-[4-(2,4-dioxo-1,3-diazinan-1-yl)-1H-indol-1-yl]piperidin-1-yl}methyl)piperidin-1-yl]benzamide]
6 | 7 | 105 | 9 | 106 | N#Cc1n[nH]c2c(N3CCC[C@@H](c4ccc(N5CCC(CN6CCC(n7ccc8c(N9CCC(=O)NC9=O)cccc87)CC6)CC5)cc4)C3)ccc(Cl)c12 [Example 9]
7 | 17 | 98 | 29 | 95 | COc1cc(N2CCN(CC3CCN(c4ccc(C5CCN(c6ccc(C)c7c(C#N)c[nH]c67)CC5)c(F)c4)CC3)CC2)cc2c1C(=O)N(C1CCC(=O)NC1=O)C2 (stereo not shown) [Example 41, 7-(4-{4-[4-({4-[2-(2,6-Dioxopiperidin-3-yl)-7-methoxy-1-oxo-2,3-dihydro-1H-isoindol-5-yl]piperazin-1-yl}methyl)piperidin-1-yl]-2-fluorophenyl}piperidin-1-yl)-4-methyl-1H-indole-3-carbonitrile]
8 | 3 | 96 | 6 | 95 | N#Cc1c[nH]c2c(N3CCC(c4ccc(OCCCCN5CCN(c6ccc7c(c6)CN(C6CCC(=O)NC6=O)C7=O)CC5)cc4)CC3)ccc(Cl)c12 (stereo not shown) [Example 45]
9 | 281 | 87 | 164 | 101 | N#Cc1c[nH]c2c(N3CCC(c4ccc(N5CCC(CN6CCC(n7ccc8cc(N9CCC(=O)NC9=O)ccc87)CC6)CC5)cc4)CC3)ccc(Cl)c12 [Example 90, 4-Chloro-7-(4-{4-[4-({4-[5-(2,4-dioxo-1,3-diazinan-1-yl)-1H-indol-1-yl]piperidin-1-yl}methyl)piperidin-1-yl]phenyl}piperidin-1-yl)-1H-indole-3-carbonitrile]
10 | 31 | 90 | 22 | 91 | Cc1ccc(C2CCCN(c3ccc(N4CCC(CN5CCN(c6ccc7c(c6)CN(C6CCC(=O)NC6=O)C7=O)CC5)CC4)cc3)C2)c2[nH]cc(C#N)c12 (single isomer, unassigned) [Example 82, 7-[(3R*)-1-{4-[4-({4-[2-(2,6-dioxopiperidin-3-yl)-1-oxo-2,3-dihydro-1H-isoindol-5-yl]piperazin-1-yl}methyl)piperidin-1-yl]phenyl}piperidin-3-yl]-4-methyl-1H-indole-3-carbonitrile]
11 | 9 | 96 | 798 | 78 | N#Cc1c[nH]c2c(N3CCCC(c4ccc(N5CCC(CN6CCC(n7ccc8c(N9CCC(=O)NC9=O)cccc87)CC6)CC5)cn4)C3)ccc(Cl)c12 (single isomer, unassigned) [Example 65, 4-Chloro-7-[(3R*)-3-{5-[4-({4-[4-(2,4-dioxo-1,3-diazinan-1-yl)-1H-indol-1-yl]piperidin-1-yl}methyl)piperidin-1-yl]pyridin-2-yl}piperidin-1-yl]-1H-indole-3-carbonitrile]
12 | > 3000 | – | – | – | N#Cc1c[nH]c2c(C3CCCN(c4ccc(N5CCC(CN6CCN(c7ccc8c(c7)CN(C7CCC(=O)NC7=O)C8=O)CC6)CC5)cc4)C3)ccc(Cl)c12 (single isomer, unassigned) [Example 94, 4-Chloro-7-[(3S*)-1-{4-[4-({4-[2-(2,6-dioxopiperidin-3-yl)-1-oxo-2,3-dihydro-1H-isoindol-5-yl]piperazin-1-yl}methyl)piperidin-1-yl]phenyl}piperidin-3-yl]-1H-indole-3-carbonitrile]

Row | Structure (SMILES) | DC50 [1] [nM] | Dmax [1] [%] | DC50 [2] [nM] | Dmax [2] [%]
13 | COc1nc(N2CCN(CCCCOc3ccc(C4CCN(c5ccc(Cl)c6c(C#N)c[nH]c56)CC4)cc3)CC2)cc2c1C(=O)N(C1CCC(=O)NC1=O)C2 (stereo not shown) [Example 32, 4-Chloro-7-{4-[4-(4-{4-[2-(2,6-dioxopiperidin-3-yl)-4-methoxy-3-oxo-2,3-dihydro-1H-pyrrolo[3,4-c]pyridin-6-yl]piperazin-1-yl}butoxy)phenyl]piperidin-1-yl}-1H-indole-3-carbonitrile] | 5 | 99 | 10 | 100
